Experiments:
KRAS G12V [1] = target: T1, KRAS G12V (Homo sapiens, UniProt P01116, G12V); test: Guanine nucleotide binding assay; set-up: made in house; host or cells: E. coli BL21 (DE3); conditions: in the presence of compound, 37° C., liquid scintillation counting
Description: The recombinant gene KRAS G12V was inserted into E. coli BL21 (DE3) for expression. The overexpressed protein was purified using affinity chromatography and gel filtration chromatography. Purified KRAS G12V protein was bound to Ni-NTA beads using binding buffer [50 mM Hepes (pH 7.5), 100 mM NaCl, 2 mM MgCl2, 1 mM EDTA, and 1 mM DTT] at 4° C. Ni-NTA beads bound with KRAS G12V proteins were washed with binding buffer and then reacted with radioisotope [α-^32P] GTP (2,500 cpm/pmol), GTP, and salvianolic acid B or tanshinone I at 37° C. The beads were then washed with wash buffer [20 mM Tris-HCl (pH 7.4), 100 mM NaCl, and 2 mM MgCl2]. 200 mM imidazole was used to elute the bead-bound KRAS G12V protein, and radioactive nucleotides were quantified by liquid scintillation counting.

HCT116 (colon cancer) = test: MTT cell viability assay; type: cell-based, human; conditions: HCT116, cultured 24 and 48 hours, increasing concentrations; time- and dose-dependent
Description: (§1) To verify the efficacy of salvianolic acid B (Sigma-Aldrich) and tanshinone I (Sigma-Aldrich) on tumor cells, MTT (3-(4,5-dimethylthiazol-2-yl)-2,5-diphenyltetrazolium bromide) assay was applied to measure cell viability.
(§2) For the experiment, AsPC-1 (pancreatic cancer), HCT116 (colon cancer), and NCI-H460 (lung cancer) were used as tumor cell lines, and each tumor cell was dispensed by 1×10^3 cells/well (100 μL). After dispensing, all cells were attached to the wells for 24 hours. […] After culturing the drug-treated tumor cells for 24 and 48 hours, MTT at a concentration of 5 mg/mL was added to each tumor cell, followed by culture for 90 minutes again. Finally, the optical density (OD) of the tumor cells was measured at 540 nm using a microplate reader (Molecular Devices, USA). The analysis was performed three or more times.

NCI-H460 (lung cancer) = test: MTT cell viability assay; type: cell-based, human; conditions: NCI-H460, cultured 24 and 48 hours, increasing concentrations; time- and dose-dependent
Description: as §1, §2

[2] = system: AsPC-1 (pancreatic cancer); test: MTT cell viability assay; type: cell-based, human; conditions: AsPC-1, cultured 24 and 48 hours, increasing concentrations; time- and dose-dependent
Description: as §1, §2

KRAS G12V [3] = target: T1, KRAS G12V; test: Isothermal titration calorimetry (ITC); conditions: 25° C., read-out: binding affinity KD
Description: In order to identify the affinity of salvianolic acid B or tanshinone I for the KRAS mutant KRAS G12V protein, isothermal titration calorimetry (ITC) was used. KRAS G12V protein was dialyzed using buffer [20 mM Tris-HCl (pH 7.4), 100 mM NaCl, and 2 mM MgCl2]. Next, salvianolic acid B or tanshinone I was dissolved using the same buffer, and then the prepared KRAS G12V protein and salvianolic acid B or tanshinone I were injected into an isothermal calorimeter to perform isothermal titration thermometry. Titration measurement was performed at 25° C., involved with 20 injections at an interval of 200 seconds while salvianolic acid B or tanshinone I was stirred at 1,000 rpm. ΔS was calculated from standard thermodynamic equations using the calculated K and ΔH values. Isothermal titration thermometric analysis was performed using a MicroCal AutoITC200 (GE Healthcare, Sweden), and data were analyzed using the Origin 7.0 program.

T1 sequence (P01116 1-188 isoform P01116-2 G12V): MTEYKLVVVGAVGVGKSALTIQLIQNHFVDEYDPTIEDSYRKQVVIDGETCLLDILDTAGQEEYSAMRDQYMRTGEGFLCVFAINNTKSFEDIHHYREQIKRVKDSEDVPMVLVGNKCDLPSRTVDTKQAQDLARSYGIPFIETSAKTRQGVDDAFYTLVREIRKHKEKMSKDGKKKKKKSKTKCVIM

Structure (SMILES) | activity of radioisotope [α-32P] GTP binding of KRAS G12V (KRAS G12V [1]) | cell viability (HCT116 (colon cancer)) | cell viability (NCI-H460 (lung cancer)) | cell viability [2] | Kd (KRAS G12V [3])
O=C(/C=C/c1ccc(O)c2c1[C@H](C(=O)O[C@H](Cc1ccc(O)c(O)c1)C(=O)O)[C@@H](c1ccc(O)c(O)c1)O2)O[C@H](Cc1ccc(O)c(O)c1)C(=O)O [salvianolic acid B] | decreased | decrease in cell viability | decrease in cell viability | decrease in cell viability | 32 µM
Cc1coc2c1C(=O)C(=O)c1c-2ccc2c(C)cccc12 [tanshinone I] | decreased | decrease in cell viability | decrease in cell viability | decrease in cell viability | 21 µM

— US20230147718A1, “COMPOSITION FOR CANCER PREVENTION OR TREATMENT, CONTAINING, AS ACTIVE INGREDIENT, SALVIANOLIC ACID B OR TANSHINONE I” (GJMEDI, priority 2020, published 2023)
